From PubChem BioAssay AID330 (DTP/NCI, 2004)
“And” between values parts separate entries of the source, which are not always exact repeats. Equal entries are not always repeated. Toxic doses and inconclusive results are not listed. The calls were made as follows: active = survival T/C of 150% or more; inactive = T/C below 125% in these data.

Test system: P388 leukemia ip, CD2F1 mice, survival T/C
Experiment: NCI In Vivo Anticancer Drug Screen. Data for tumor model P388 Leukemia (intraperitoneal) in CD2F1 (CDF1) mice
Details: endpoint: median survival time, higher = longer survival
In short: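 Mice carrying the transplanted tumor received test compound or vehicle. Survival was recorded in each group, and the value is the treated-group measurement divided by that of the vehicle-treated control group.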

[1] = dose: 60.0 mg/kg/injection, schedule: Q01DX005 (ip), vehicle: Klucel (hydroxypropylcellulose) (HPC)
[2] = dose: 120.0 mg/kg/injection, schedule: Q01DX005 (ip), vehicle: Klucel (hydroxypropylcellulose) (HPC)
[3] = dose: 240.0 mg/kg/injection, schedule: Q01DX005 (ip), vehicle: Klucel (hydroxypropylcellulose) (HPC)
[4] = dose: 60.0 mg/kg/injection, schedule: Q01DX005 (ip), vehicle: saline with Tween-80
[5] = dose: 120.0 mg/kg/injection, schedule: Q01DX005 (ip), vehicle: saline with Tween-80
[6] = dose: 240.0 mg/kg/injection, schedule: Q01DX005 (ip), vehicle: saline with Tween-80
[7] = dose: 50.0 mg/kg/injection, schedule: Q01DX009 (ip), vehicle: saline with Tween-80
[8] = dose: 100.0 mg/kg/injection, schedule: Q01DX009 (ip), vehicle: saline with Tween-80
[9] = dose: 50.0 mg/kg/injection, schedule: Q01DX005 (ip), vehicle: Klucel (hydroxypropylcellulose) (HPC)
[10] = dose: 100.0 mg/kg/injection, schedule: Q01DX005 (ip), vehicle: Klucel (hydroxypropylcellulose) (HPC)
[11] = dose: 200.0 mg/kg/injection, schedule: Q01DX005 (ip), vehicle: Klucel (hydroxypropylcellulose) (HPC)

Measured: T/C

CN1CCN(CN2C(=O)NC(c3ccccc3)(c3ccccc3)C2=O)CC1
inactive: [1] 90 % of control | [2] 107 % of control | [3] 98 % of control

COC1OC(C(C)O)C2OC(C)(C)OC12 (stereo unspecified)
inactive: dose: 30.0 mg/kg/injection, schedule: Q01DX005 (ip), vehicle: saline with Tween-80 101 % of control | [4] 104 % of control and 106 % of control | [5] 108 % of control | [6] 106 % of control and 110 % of control

O=C(Nc1c(Cl)cccc1Cl)Oc1c(Br)cc(Br)cc1Br
inactive: [1] 108 % of control | [2] 101 % of control | [3] 102 % of control

COc1ccc(S(=O)(=O)c2coc3ccccc3c2=O)cc1
inactive: [4] 110 % of control | [5] 103 % of control | [6] 96 % of control

COC(=O)C(CCc1ccc([N+](=O)[O-])cc1)C(C)=O (stereo unspecified)
inactive: dose: 60.0 mg/kg/injection, schedule: Q01DX005 (ip), vehicle: saline 102 % of control | dose: 120.0 mg/kg/injection, schedule: Q01DX005 (ip), vehicle: saline 97 % of control | dose: 240.0 mg/kg/injection, schedule: Q01DX005 (ip), vehicle: saline 95 % of control

c1ccc2c(c1)Cc1c-2n[nH]c1-c1[nH]nc2c1Cc1ccccc1-2
inactive: [1] 96 % of control | [2] 102 % of control | [3] 96 % of control

Nc1cnc2ccccn12
inactive: [7] 97 % of control | [8] 102 % of control

Cc1ccc(NC(=O)Nc2cc(S(=O)(=O)O)ccc2Oc2ccccc2Cl)cc1
inactive: dose: 100.0 mg/kg/injection, schedule: Q04DX003 (ip), vehicle: saline sonified 100 % of control | dose: 200.0 mg/kg/injection, schedule: Q04DX003 (ip), vehicle: saline sonified 90 % of control | dose: 400.0 mg/kg/injection, schedule: Q04DX003 (ip), vehicle: saline sonified 100 % of control

c1cc[n+](CC[n+]2ccccn2)nc1
inactive: dose: 12.5 mg/kg/injection, schedule: Q01DX001 (ip), vehicle: saline 108 % of control and 111 % of control and 95 % of control | dose: 25.0 mg/kg/injection, schedule: Q01DX001 (ip), vehicle: saline 100 % of control (2×) and 122 % of control | dose: 50.0 mg/kg/injection, schedule: Q01DX001 (ip), vehicle: saline 100 % of control and 101 % of control and 92 % of control

O=C1NC(=O)C(Cc2ccc(N(CCO)CCO)cc2)(c2ccccc2)N1 (stereo unspecified)
inactive: [9] 108 % of control and 109 % of control and 116 % of control | [10] 111 % of control and 121 % of control | [11] 117 % of control and 120 % of control | dose: 400.0 mg/kg/injection, schedule: Q01DX005 (ip), vehicle: Klucel (hydroxypropylcellulose) (HPC) 110 % of control and 124 % of control

Cc1ccnc(NC(O)C(Cl)(Cl)Cl)c1 (stereo unspecified)
inactive: dose: 25.0 mg/kg/injection, schedule: Q01DX009 (ip), vehicle: Klucel (hydroxypropylcellulose) (HPC) 100 % of control | dose: 50.0 mg/kg/injection, schedule: Q01DX009 (ip), vehicle: Klucel (hydroxypropylcellulose) (HPC) 100 % of control | dose: 100.0 mg/kg/injection, schedule: Q01DX009 (ip), vehicle: Klucel (hydroxypropylcellulose) (HPC) 98 % of control | dose: 200.0 mg/kg/injection, schedule: Q01DX009 (ip), vehicle: Klucel (hydroxypropylcellulose) (HPC) 100 % of control

Cc1c(-c2ccc(C(=N)N)cc2)oc(-c2ccc(C(=N)N)cc2)c1C
inactive: dose: 3.13 mg/kg/injection, schedule: Q01DX009 (ip), vehicle: saline with Tween-80 104 % of control | dose: 6.25 mg/kg/injection, schedule: Q01DX009 (ip), vehicle: saline with Tween-80 112 % of control

CO/C=C1\SC(=S)N(c2ccc(NC(C)=O)cc2)C1=O
inactive: [7] 93 % of control | [8] 92 % of control | dose: 200.0 mg/kg/injection, schedule: Q01DX009 (ip), vehicle: saline with Tween-80 96 % of control

COC(=O)/C=C/N=[N+]=[N-]
inactive: [4] 106 % of control | [5] 106 % of control | [6] 106 % of control

CCc1nc(N)nc(N)c1-c1ccc(Cl)cc1.[O]=[Zn]
inactive: dose: 12.5 mg/kg/injection, schedule: Q04DX003 (ip), vehicle: Klucel (hydroxypropylcellulose) (HPC) 106 % of control | dose: 25.0 mg/kg/injection, schedule: Q04DX003 (ip), vehicle: Klucel (hydroxypropylcellulose) (HPC) 106 % of control | dose: 50.0 mg/kg/injection, schedule: Q04DX003 (ip), vehicle: Klucel (hydroxypropylcellulose) (HPC) 113 % of control | dose: 100.0 mg/kg/injection, schedule: Q04DX003 (ip), vehicle: Klucel (hydroxypropylcellulose) (HPC) 117 % of control

CC(C)NC(=O)OCc1ncn(-c2ccccc2)c1COC(=O)NC(C)C
inactive: dose: 12.5 mg/kg/injection, schedule: Q01DX005 (ip), vehicle: Klucel (hydroxypropylcellulose) (HPC) 103 % of control | dose: 25.0 mg/kg/injection, schedule: Q01DX005 (ip), vehicle: Klucel (hydroxypropylcellulose) (HPC) 103 % of control | [9] 87 % of control and 97 % of control | [10] 87 % of control and 91 % of control

CC1C(=O)C23CCC4C5(C)CCCC4(C4OCCN4C5)C2CCC1C3 (stereo unspecified)
inactive: dose: 1.0 mg/kg/injection, schedule: Q01DX009 (ip), vehicle: Klucel (hydroxypropylcellulose) (HPC) 99 % of control | dose: 2.0 mg/kg/injection, schedule: Q01DX009 (ip), vehicle: Klucel (hydroxypropylcellulose) (HPC) 97 % of control | dose: 4.0 mg/kg/injection, schedule: Q01DX009 (ip), vehicle: Klucel (hydroxypropylcellulose) (HPC) 98 % of control | dose: 8.0 mg/kg/injection, schedule: Q01DX009 (ip), vehicle: Klucel (hydroxypropylcellulose) (HPC) 97 % of control

CCCC1CC[N-]CC1.CCCC1CC[N-]CC1.[Cl][Pt+2]([Cl])([Cl])[Cl]
inactive: dose: 1.0 mg/kg/injection, schedule: Q01DX009 (ip), vehicle: saline with Tween-80 90 % of control | dose: 2.0 mg/kg/injection, schedule: Q01DX009 (ip), vehicle: saline with Tween-80 95 % of control | dose: 3.75 mg/kg/injection, schedule: Q01DX009 (ip), vehicle: saline with Tween-80 100 % of control | dose: 4.0 mg/kg/injection, schedule: Q01DX009 (ip), vehicle: saline with Tween-80 100 % of control | dose: 11.0 mg/kg/injection, schedule: Q01DX009 (ip), vehicle: saline with Tween-80 118 % of control | dose: 25.0 mg/kg/injection, schedule: Q04DX003 (ip), vehicle: saline with Tween-80 110 % of control | dose: 37.5 mg/kg/injection, schedule: Q01DX009 (ip), vehicle: saline with Tween-80 118 % of control | dose: 50.0 mg/kg/injection, schedule: Q04DX003 (ip), vehicle: saline with Tween-80 120 % of control | dose: 75.0 mg/kg/injection, schedule: Q04DX003 (ip), vehicle: saline with Tween-80 95 % of control

C[Si](C)(C)[Si](C)(C)C
inactive: dose: 50.0 mg/kg/injection, schedule: Q01DX009 (ip), vehicle: saline 98 % of control | dose: 100.0 mg/kg/injection, schedule: Q01DX009 (ip), vehicle: saline 111 % of control | dose: 200.0 mg/kg/injection, schedule: Q01DX009 (ip), vehicle: saline 102 % of control

COC(=O)Nc1c2c(nc3ccccc13)-c1ccccc1C(C)(C)C2
inactive: [9] 103 % of control | [10] 101 % of control | [11] 98 % of control

CCN(CC)P(CCCCP(N(CC)CC)N(CC)CC)N(CC)CC
inactive: [1] 106 % of control | [2] 103 % of control | [3] 104 % of control

Cc1cn(CCCn2cnc3c(=O)[nH]cnc32)c(=O)[nH]c1=O
inactive: [4] 92 % of control | [5] 101 % of control | [6] 88 % of control

CC1(C)C2CCC1(CS(=O)O)C(=O)C2.[Ag] (stereo unspecified)
inactive: dose: 50.0 mg/kg/injection, schedule: Q01DX005 (ip), vehicle: saline with Tween-80 111 % of control | dose: 100.0 mg/kg/injection, schedule: Q01DX005 (ip), vehicle: saline with Tween-80 105 % of control

COc1ccc2cc(C(=O)c3ccccc3)c(=O)oc2c1
inactive: [4] 93 % of control | [5] 96 % of control | [6] 96 % of control
